In assay [1] the test system is A. baumannii isolate AB 02. The following applies: cited from earlier work. The method, then: (§1) In this work, three A. baumannii isolates previously described by Castilho et al. that were isolated from patients with hospital-acquired infections were used. Isolates AB 02 and AB 72 were resistant to ampicillin, amikacin, and ciprofloxacin. AB 53 isolate only presented resistance to ampicillin. […] Thus, AB 02 and AB 72 were considered as MDR strains. The ability to form biofilms by A. baumannii isolates AB 02, AB 53 and AB 72 was determined by crystal violet staining ...

For assay [2], the system named is A. baumannii isolate AB 72. The note with it: cited from earlier work. The method, then:
as §1

The test system of assay [3] is A. baumannii isolate AB 53. The note with it: cited from earlier work. The method, then:
as §1

The test system of assay [4] is A. baumannii isolate AB 02. As to the kind of experiment: Minimum inhibitory concentration (MIC), broth microdilution. The following applies: peptides 25 to 1.56 μM, 24 h at 37 °C, OD 405 nm, triplicates. It counts as cell-based, Acinetobacter baumannii. The method, then:
(§2) The minimum inhibitory concentration was determined by broth microdilution according to Wiegand et al.. The AB 02, […] and AB 72 isolates were grown in LB broth medium for 8 h at 37 °C until they reached a growth turbidity corresponding to 0.5 of the McFarland scale. Thirty microliters of each culture were added in the wells of polystyrene plates containing 170 µL of culture medium with different concentrations of the antimicrobial peptides. Agelaia-MPI, Polybia-MPII, Polydim-I, Con10 and NDBP 5.8 antimicrobial peptides were serially diluted from 25 to 1.56 μM. The plate containing different concentrations of individual peptides with the bacterial strains were incubated for 24 h at 37 °C, after which time the plates were read at the optical density of 405 nm. As positive control, bacterial strains without peptides were grown in the same conditions, and as negative control medium alone was used.
A general note: Dilution methods test growth across graded concentrations, often in twofold steps.

For assay [5], the system named is A. baumannii isolate AB 72. The assay is described as above. It counts as cell-based, Acinetobacter baumannii. The note with it: peptides 25 to 1.56 μM, 24 h at 37 °C, OD 405 nm, triplicates. The method, then:
as §2

In assay [6] the test system is A. baumannii isolate AB 02 biofilm. Kind of assay: Inhibition of biofilm formation on polystyrene plates (MBEC), crystal violet. It counts as cell-based, Acinetobacter baumannii. The note with it: for Minimal inhibitory concentration against the formation of A. baumannii biofilm (MBEC): Isolate AB 02, polystyrene plate, LB 1/4 + 0.2% glucose, 29 °C, 24 h, crystal violet, OD 595 nm, peptides 25 to 1.56 μM. The method, then:
[…] [71] methodology with minor modifications. Initially, A. baumannii strains (AB 02, AB 53, and AB 72) were grown for 6 h in LB broth until reaching an optimum growth of 1.0 in the optical density of 600 nm and then the culture concentration was adjusted to 1.5 × 10^8 CFU/mL and 30 μL of the culture was added to the wells containing 170 μL de LB ¼ + 0.2% glucose containing serially diluted peptides ranging from 25 to 1.56 μM. Cells were incubated at 29 °C for 24 h to let biofilms be formed. The supernatant was removed and the wells were washed with 200 μL of PBS twice to remove the non-adherent and weakly adherent cells, maintaining only the mature biofilm formed on the plate. Biofilm quantification was measured by staining attached cells with 0.2% (w/v) violet crystal staining solubilized with ethanol/acetone (80/20 v/v) and quantified at 595 nm. The biofilms formed in cultures with different peptide concentrations were compared with the biofilms formed in cultures of A. baumannii strains without peptides. Analyses were performed in triplicate and three independent experiments were performed for each of these assays.

The test system of assay [7] is A. baumannii isolate AB 53. As to the kind of experiment: Minimum inhibitory concentration (MIC), broth microdilution. It counts as cell-based, Acinetobacter baumannii. The note with it: peptides 25 to 1.56 μM, 24 h at 37 °C, OD 405 nm, triplicates.
Assay [8] relates to A. baumannii isolate AB 72 biofilm. Kind of assay: Inhibition of biofilm formation on polystyrene plates (MBEC), crystal violet. It counts as cell-based, Acinetobacter baumannii. The following applies: for Minimal inhibitory concentration against the formation of A. baumannii biofilm (MBEC): Isolate AB 72, polystyrene plate, LB 1/4 + 0.2% glucose, 29 °C, 24 h, crystal violet, OD 595 nm, peptides 25 to 1.56 μM. The method, then:
(§3) In order to determine if individual peptides could avoid biofilm formation, the minimal biofilm eradication concentration (MBEC) determination assay was performed using 96-well […] plates according to Feng et al. methodology with minor modifications. Initially, A. baumannii strains (AB 02, AB 53, and AB 72) were grown for 6 h in LB broth until reaching an optimum growth of 1.0 in the optical density of 600 nm and then the culture concentration was adjusted to 1.5 × 10^8 CFU/mL and 30 μL of the culture was added to the wells containing 170 μL de LB ¼ + 0.2% glucose containing serially diluted peptides ranging from 25 to 1.56 μM. Cells were incubated at 29 °C for 24 h to let biofilms be formed. The supernatant was removed and the wells were washed with 200 μL of PBS twice to remove the non-adherent and weakly adherent cells, maintaining only the mature biofilm formed on the plate. Biofilm quantification was measured by staining attached cells with 0.2% (w/v) violet crystal staining solubilized with ethanol/acetone (80/20 v/v) and quantified at 595 nm. The biofilms formed in cultures with different peptide concentrations were compared with the biofilms formed in cultures of A. baumannii strains without peptides. Analyses were performed in triplicate and three independent experiments were performed for each of these assays.

Assay [9] has as its system A. baumannii isolate AB 53 biofilm. Described as above. It counts as cell-based, Acinetobacter baumannii. The following applies: for Minimal inhibitory concentration against the formation of A. baumannii biofilm (MBEC): Isolate AB 53, polystyrene plate, LB 1/4 + 0.2% glucose, 29 °C, 24 h, crystal violet, OD 595 nm, peptides 25 to 1.56 μM. The method, then:
as §3

Assay [10] relates to methicillin-resistant S. aureus (MRSA) biofilm. It counts as cell-based, Staphylococcus aureus. The note with it: peptide at 12.5 μM, crystal violet. The method, then:
(§4) To determine the formation of the biofilm of Staphylococcus spp., the methodology according to Kwasny and Opperman (2010) with modifications was used. Staphylococcus epidermidis and methicillin-resistant Staphylococcus aureus (MRSA) cryopreserved strains at −80 °C were reactivated in solid medium to obtain an isolated colony, which was inoculated in LB medium broth and cultured at 37 °C until they reached a concentration corresponding to 0.5 turbidity of the MacFarland scale. At that concentration, 30 μL of the bacterial culture was added to wells containing 170 μL of tryptic soy broth (HiMedia) broth with 1% glucose. The plate was incubated at 37 °C for 24 h. After this period the bacterial growth was quantified by optical density reading at 600 nm and the formation of the biofilm was determined by the colorimetric method similar to that used for Acinetobacter. The biofilm inhibition test also followed the standard for the previous tests, with modifications in the culture medium used to increase the bacterial biofilm production by Staphylococcus strains.

In the next assay the test system is S. epidermidis biofilm. It counts as cell-based, Staphylococcus epidermidis. The following applies: peptide at 12.5 μM, crystal violet. The method, then: as §4

No end group written: not given here.

On to `CC1(C)S[C@@H]2[C@H](NC(=O)[C@H](N)c3ccccc3)C(=O)N2[C@H]1C(=O)O` [ampicillin], for which the Antibiotic susceptibility category entry in [1] is given as “resistant”; in [2], “resistant”; in assay [3], “resistance”.
The MIC is the least concentration at which growth counts as inhibited. Read a high MIC as weaker potency. On to GILGKIWEGVKSLI-NH2 [NDBP-5.8], for which the minimal inhibitory concentration (MIC) in assay [4], in assay [5] and in assay [7] was 25 µM each time. In addition, the “Minimal inhibitory concentration against the formation of A. baumannii biofilm (MBEC)” value (“Minimal inhibitory concentration” below) is listed as above 25 µM in [6]; 25 µM in assay [6] (listed as NBDP 5.8); above 25 µM in [8]; 25 µM in [8] (listed as NBDP 5.8); above 25 µM in [9]; 25 µM in [9] (listed as NBDP 5.8). For the same molecule, the “Inhibition of the biofilm” value is on record as above 95% in assay [6] (isolate AB 02, peptide at 25 μM); above 95% in [8] (isolate AB 72, peptide at 25 μM); above 95% in assay [9] (isolate AB 53, peptide at 25 μM).
With `C[C@@H](O)[C@H]1C(=O)N2C(C(=O)O)=C(S[C@@H]3CN[C@H](C(=O)N(C)C)C3)[C@H](C)[C@H]12` [meropenem], the Antibiotic susceptibility category result in [2] and in assay [3] was “susceptible” in each case.
In the case of `CN(C)[C@@H]1C(O)=C(C(N)=O)C(=O)[C@@]2(O)C(O)=C3C(=O)c4c(O)cccc4[C@@](C)(O)[C@H]3C[C@@H]12` [tetracycline], the Antibiotic susceptibility category result in assay [1], in assay [2] and in assay [3] was “intermediate susceptibility” throughout.
For `NCC[C@H](O)C(=O)N[C@@H]1C[C@H](N)[C@@H](O[C@H]2O[C@H](CN)[C@@H](O)[C@H](O)[C@H]2O)[C@H](O)[C@H]1O[C@H]1O[C@H](CO)[C@@H](O)[C@H](N)[C@H]1O` [amikacin], the Antibiotic susceptibility category result in [1] and in [2] was “resistant” throughout.
As for INWLKLGKAIIDAL-NH2 [Agelaia-MPI], the MIC was 6.25 µM in assay [4] and 3.12 µM in assay [7]. For the same molecule, the “Inhibition of biofilm formation” value (in assay [10]; with S. epidermidis biofilm) was 85% throughout. The figures for the “Minimal inhibitory concentration” value in assay [6], in assay [8] and in assay [9] were 25 µM, 12.5 µM and 6.25 µM, respectively.
For the molecule `O=C(O)c1cn(C2CC2)c2cc(N3CCNCC3)c(F)cc2c1=O` [ciprofloxacin], the Antibiotic susceptibility category result in assay [1] and in assay [2] was “resistant” throughout.
On to INWLKLGKMVIDAL-NH2 [Polybia-MPII], for which the values for the MIC in assay [4], in [5] and in [7] were 12.5 µM, 6.25 µM and 6.25 µM, respectively. For the same molecule, the “Inhibition of biofilm formation” value (in assay [10]; with S. epidermidis biofilm) was 85% each time. Further, the “Minimal inhibitory concentration” value in [6] stood at 25 µM; in [8], 25 µM; in assay [9], 12.5 µM.
For the molecule FWSFLVKAASKILPSLIGGGDDNKSSS-NH2 [Con10], the MIC in assay [4] came out at 12.5 µM; in [5], 6.25 µM; in assay [7] it was 6.25 µM. The “Minimal inhibitory concentration” value was found to be 25 µM in assay [6], 12.5 µM in assay [8] and 12.5 µM in [9].
For AVAGEKLWLLPHLLKMLLTPTP-NH2 [Polydim-I], the “Minimal inhibitory concentration” value in [6], in assay [8] and in assay [9] was above 25 µM in each case.

Source of the values: paper PMC6520840, “Antimicrobial and Antibiofilm Effects of Peptides from Venom of Social Wasp and Scorpion on Multidrug-Resistant Acinetobacter baumannii” (Toxins, 2019).
